Measurements: ChEMBL document CHEMBL1201862, “PubChem BioAssay data set” (2004)
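Test compounds were applied to cells in 96-well plates for 48 hours at 5 doses. At the GI50, growth is halved.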 Activity calls are given as the source filed them. Cut-off read from the data, not from the text of the source: active = GI50 up to about 1.1 µM and inactive = higher.

Legend:
Assay in all cases: NCI-60 cell line screen, 48 h
NCI-H460 = system: NCI-H460
NCI/ADR-RES = system: NCI/ADR-RES
CAKI-1 = system: CAKI-1
A549 = system: A549
SK-MEL-2 = system: SK-MEL-2
RXF 393 = system: RXF 393
HOP-92 = system: HOP-92
Malme-3M = system: Malme-3M
K562 = system: K562
NCI-H522 = system: NCI-H522
SNB-75 = system: SNB-75
SF-539 = system: SF-539
T47D = system: T47D
MDA-MB-435 = system: MDA-MB-435
RPMI-8226 = system: RPMI-8226
SF-268 = system: SF-268
KM12 = system: KM12
MDA-MB-231 = system: MDA-MB-231
SK-MEL-28 = system: SK-MEL-28
HOP-62 = system: HOP-62
TK-10 = system: TK-10
HT-29 = system: HT-29
UO-31 = system: UO-31
IGROV-1 = system: IGROV-1
U-251 = system: U-251
EKVX = system: EKVX
OVCAR-4 = system: OVCAR-4
MOLT-4 = system: MOLT-4
BT-549 = system: BT-549
SK-MEL-5 = system: SK-MEL-5
LOX IMVI = system: LOX IMVI
MDA-N = system: MDA-N
SK-OV-3 = system: SK-OV-3
SNB-19 = system: SNB-19
Hs-578T = system: Hs-578T
UACC-257 = system: UACC-257
HL-60 = system: HL-60
OVCAR-3 = system: OVCAR-3
PC-3 = system: PC-3
HCT-116 = system: HCT-116
ACHN = system: ACHN
HCC 2998 = system: HCC 2998
SF-295 = system: SF-295
SN12C = system: SN12C
NCI-H226 = system: NCI-H226
COLO 205 = system: COLO 205
786-0 = system: 786-0
HCT-15 = system: HCT-15
CCRF-CEM = system: CCRF-CEM
MCF7 = system: MCF7
A498 = system: A498
M14 = system: M14
DU-145 = system: DU-145
NCI-H23 = system: NCI-H23
OVCAR-8 = system: OVCAR-8
OVCAR-5 = system: OVCAR-5
UACC-62 = system: UACC-62
SW-620 = system: SW-620
SR = system: SR

SMILES: Clc1ccc(CSCCc2ccncc2)cc1Cl
- GI50 (NCI-H460): 31.8 µM (inactive)
- GI50 (NCI/ADR-RES): 19.7 µM (inactive)
- GI50 (CAKI-1): 38.5 µM (inactive)
- GI50 (A549): 28.1 µM (inactive)
- GI50 (SK-MEL-2): 15.8 µM (inactive)
- GI50 (RXF 393): 21.9 µM (inactive)
- GI50 (HOP-92): 13.1 µM (inactive)
- GI50 (Malme-3M): 21 µM (inactive)
- GI50 (K562): 19.3 µM (inactive)
- GI50 (NCI-H522): 15.4 µM (inactive)
- GI50 (SNB-75): 22.9 µM (inactive)
- GI50 (SF-539): 17 µM (inactive)
- GI50 (T47D): 26.3 µM (inactive)
- GI50 (MDA-MB-435): 22.6 µM (inactive)
- GI50 (RPMI-8226): 14.6 µM (inactive)
- GI50 (SF-268): 21.9 µM (inactive)
- GI50 (KM12): 21.2 µM (inactive)
- GI50 (MDA-MB-231): 15.4 µM (inactive)
- GI50 (SK-MEL-28): 22.7 µM (inactive)
- GI50 (HOP-62): 22.6 µM (inactive)
- GI50 (TK-10): 42.9 µM (inactive)
- GI50 (HT-29): 15.7 µM (inactive)
- GI50 (UO-31): 21 µM (inactive)
- GI50 (IGROV-1): 20.8 µM (inactive)
- GI50 (U-251): 15.2 µM (inactive)
- GI50 (EKVX): 20.4 µM (inactive)
- GI50 (OVCAR-4): 23.1 µM (inactive)
- GI50 (MOLT-4): 15.8 µM (inactive)
- GI50 (BT-549): 19.6 µM (inactive)
- GI50 (SK-MEL-5): 16.3 µM (inactive)
- GI50 (LOX IMVI): > 10 µM (inactive)
- GI50 (MDA-N): 20.2 µM (inactive)
- GI50 (SK-OV-3): 27.8 µM (inactive)
- GI50 (SNB-19): 17.8 µM (inactive)
- GI50 (Hs-578T): 23.4 µM (inactive)
- GI50 (UACC-257): 35.9 µM (inactive)
- GI50 (HL-60): 17 µM (inactive)
- GI50 (OVCAR-3): 16.1 µM (inactive)
- GI50 (PC-3): 21.2 µM (inactive)
- GI50 (HCT-116): 15.8 µM (inactive)
- GI50 (ACHN): 21.7 µM (inactive)
- GI50 (HCC 2998): 18.2 µM (inactive)
- GI50 (SF-295): 17.5 µM (inactive)
- GI50 (SN12C): 17.4 µM (inactive)
- GI50 (NCI-H226): 22 µM (inactive)
- GI50 (COLO 205): 14.2 µM (inactive)
- GI50 (786-0): 17.2 µM (inactive)
- GI50 (HCT-15): 22.9 µM
- GI50 (CCRF-CEM): 20.6 µM (inactive)
- GI50 (MCF7): 19.5 µM (inactive)
- GI50 (A498): 13.2 µM (inactive)
- GI50 (M14): 17.2 µM (inactive)
- GI50 (DU-145): 29.2 µM (inactive)
- GI50 (NCI-H23): 22 µM (inactive)
- GI50 (OVCAR-8): 19.7 µM (inactive)
- GI50 (OVCAR-5): 23.3 µM (inactive)
- GI50 (UACC-62): 15.3 µM (inactive)
- GI50 (SW-620): 19.6 µM (inactive)

SMILES: C=CCN1C[C@H](C)N([C@H](c2ccc(C(=O)N(CC)CCO)cc2)c2cccc(OC)c2)C[C@H]1C
- GI50 (NCI/ADR-RES): > 100 µM (inactive)
- GI50 (CAKI-1): > 100 µM (inactive)
- GI50 (A549): > 100 µM (inactive)
- GI50 (SK-MEL-2): > 100 µM (inactive)
- GI50 (HOP-92): 13.6 µM (inactive)
- GI50 (Malme-3M): > 100 µM (inactive)
- GI50 (NCI-H522): > 100 µM (inactive)
- GI50 (SF-539): > 100 µM (inactive)
- GI50 (T47D): 38.5 µM (inactive)
- GI50 (MDA-MB-435): > 100 µM (inactive)
- GI50 (RPMI-8226): 40 µM (inactive)
- GI50 (SF-268): > 100 µM (inactive)
- GI50 (KM12): > 100 µM (inactive)
- GI50 (MDA-MB-231): > 100 µM (inactive)
- GI50 (SK-MEL-28): > 100 µM (inactive)
- GI50 (HOP-62): > 100 µM (inactive)
- GI50 (TK-10): > 100 µM (inactive)
- GI50 (HT-29): 47.6 µM (inactive)
- GI50 (UO-31): > 100 µM (inactive)
- GI50 (IGROV-1): > 100 µM (inactive)
- GI50 (U-251): 56 µM (inactive)
- GI50 (EKVX): > 100 µM (inactive)
- GI50 (OVCAR-4): > 100 µM (inactive)
- GI50 (MOLT-4): 51.5 µM (inactive)
- GI50 (BT-549): > 100 µM (inactive)
- GI50 (SK-MEL-5): 54.7 µM (inactive)
- GI50 (MDA-N): > 100 µM (inactive)
- GI50 (SK-OV-3): 71.8 µM (inactive)
- GI50 (SNB-19): > 100 µM (inactive)
- GI50 (Hs-578T): > 100 µM (inactive)
- GI50 (UACC-257): 47 µM (inactive)
- GI50 (HL-60): > 100 µM (inactive)
- GI50 (OVCAR-3): 12.3 µM (inactive)
- GI50 (PC-3): 38.6 µM (inactive)
- GI50 (HCT-116): > 100 µM (inactive)
- GI50 (ACHN): > 100 µM (inactive)
- GI50 (SF-295): > 100 µM (inactive)
- GI50 (SN12C): > 100 µM (inactive)
- GI50 (NCI-H226): 50.1 µM (inactive)
- GI50 (COLO 205): 43.5 µM (inactive)
- GI50 (786-0): > 100 µM (inactive)
- GI50 (HCT-15): > 100 µM
- GI50 (MCF7): 92.9 µM (inactive)
- GI50 (A498): 76.6 µM (inactive)
- GI50 (M14): > 100 µM (inactive)
- GI50 (DU-145): > 100 µM (inactive)
- GI50 (NCI-H23): > 100 µM (inactive)
- GI50 (OVCAR-8): > 100 µM (inactive)
- GI50 (SR): 51.3 µM (inactive)
- GI50 (OVCAR-5): > 100 µM (inactive)
- GI50 (UACC-62): > 100 µM (inactive)
- GI50 (SW-620): > 100 µM (inactive)

SMILES: O=C1c2ccccc2-c2c1c1ccccc1c(=O)n2Cc1ccco1
- GI50 (NCI/ADR-RES): > 100 µM (inactive)
- GI50 (CAKI-1): > 100 µM (inactive)
- GI50 (A549): > 100 µM (inactive)
- GI50 (SK-MEL-2): > 100 µM (inactive)
- GI50 (HOP-92): > 100 µM (inactive)
- GI50 (Malme-3M): > 100 µM (inactive)
- GI50 (K562): > 100 µM (inactive)
- GI50 (NCI-H522): > 100 µM (inactive)
- GI50 (SNB-75): 48.6 µM (inactive)
- GI50 (SF-539): 39.6 µM (inactive)
- GI50 (T47D): > 100 µM (inactive)
- GI50 (MDA-MB-435): > 100 µM (inactive)
- GI50 (RPMI-8226): > 100 µM (inactive)
- GI50 (SF-268): > 100 µM (inactive)
- GI50 (KM12): > 100 µM (inactive)
- GI50 (MDA-MB-231): > 100 µM (inactive)
- GI50 (SK-MEL-28): > 100 µM (inactive)
- GI50 (HOP-62): 47.1 µM (inactive)
- GI50 (TK-10): > 100 µM (inactive)
- GI50 (HT-29): > 100 µM (inactive)
- GI50 (UO-31): > 100 µM (inactive)
- GI50 (IGROV-1): > 100 µM (inactive)
- GI50 (U-251): > 100 µM (inactive)
- GI50 (EKVX): > 100 µM (inactive)
- GI50 (MOLT-4): > 100 µM (inactive)
- GI50 (BT-549): > 100 µM (inactive)
- GI50 (SK-MEL-5): > 100 µM (inactive)
- GI50 (LOX IMVI): > 100 µM (inactive)
- GI50 (MDA-N): > 100 µM (inactive)
- GI50 (SK-OV-3): > 100 µM (inactive)
- GI50 (Hs-578T): 54.6 µM (inactive)
- GI50 (UACC-257): > 100 µM (inactive)
- GI50 (HL-60): > 100 µM (inactive)
- GI50 (OVCAR-3): > 100 µM (inactive)
- GI50 (PC-3): > 100 µM (inactive)
- GI50 (HCT-116): > 100 µM (inactive)
- GI50 (SF-295): > 100 µM (inactive)
- GI50 (SN12C): > 100 µM (inactive)
- GI50 (NCI-H226): > 100 µM (inactive)
- GI50 (COLO 205): > 100 µM (inactive)
- GI50 (786-0): > 100 µM (inactive)
- GI50 (HCT-15): > 100 µM
- GI50 (CCRF-CEM): > 100 µM (inactive)
- GI50 (MCF7): > 100 µM (inactive)
- GI50 (A498): > 100 µM (inactive)
- GI50 (M14): > 100 µM (inactive)
- GI50 (DU-145): > 100 µM (inactive)
- GI50 (NCI-H23): > 100 µM (inactive)
- GI50 (OVCAR-8): > 100 µM (inactive)
- GI50 (SR): > 100 µM (inactive)
- GI50 (OVCAR-5): > 100 µM (inactive)
- GI50 (UACC-62): > 100 µM (inactive)
- GI50 (SW-620): > 100 µM (inactive)
